Laboratory results as given in ChEMBL document CHEMBL1140860, “Synthesis and evaluation of dihydroartemisinin and dihydroartemisitene acetal dimers showing anticancer and antiprotozoal activity” (Bioorg Med Chem, 2009).
pIC50: −log10 of the molar value.

Legend:
OVCAR-5 = assay: Growth inhibition of human OVCAR5 cells after 48 hrs by sulforhodamine B assay; assay type: functional; details: OVCAR-5, 48 h
MDA-MB-231 = assay: Growth inhibition of human MDA-MB-231 cells after 48 hrs by sulforhodamine B assay; assay type: functional; details: MDA-MB-231, 48 h
SK-MEL-5 = assay: Growth inhibition of human SK-MEL-5 cells after 48 hrs by sulforhodamine B assay; assay type: functional; details: SK-MEL-5, 48 h
IGROV-1 = assay: Growth inhibition of human IGROV1 cells after 48 hrs by sulforhodamine B assay; assay type: functional; details: IGROV-1, 48 h
M14 = assay: Growth inhibition of human M14 cells after 48 hrs by sulforhodamine B assay; assay type: functional; details: M14, 48 h
NCI-H522 = assay: Growth inhibition of human NCI-H522 cells after 48 hrs by sulforhodamine B assay; assay type: functional; details: NCI-H522, 48 h
UACC-257 = assay: Growth inhibition of human UACC257 cells after 48 hrs by sulforhodamine B assay; assay type: functional; details: UACC-257, 48 h
CCRF-CEM = assay: Growth inhibition of human CCRF-CEM cells after 48 hrs by sulforhodamine B assay; assay type: functional
MDA-MB-435 = assay: Growth inhibition of human MDA-MB-435 cells after 48 hrs by sulforhodamine B assay; assay type: functional; details: MDA-MB-435, 48 h
SR = assay: Growth inhibition of human SR cells after 48 hrs by sulforhodamine B assay; assay type: functional
NCI-H226 = assay: Growth inhibition of human NCI-H226 cells after 48 hrs by sulforhodamine B assay; assay type: functional; details: NCI-H226, 48 h
U-251 = assay: Growth inhibition of human U251 cells after 48 hrs by sulforhodamine B assay; assay type: functional; details: U-251, 48 h
PC-3 = assay: Growth inhibition of human PC3 cells after 48 hrs by sulforhodamine B assay; assay type: functional; details: PC-3, 48 h
NCI-H460 = assay: Growth inhibition of human NCI-H460 cells after 48 hrs by sulforhodamine B assay; assay type: functional; details: NCI-H460, 48 h
SK-MEL-28 = assay: Growth inhibition of human SK-MEL-28 cells after 48 hrs by sulforhodamine B assay; assay type: functional; details: SK-MEL-28, 48 h
HOP-62 = assay: Growth inhibition of human HOP62 cells after 48 hrs by sulforhodamine B assay; assay type: functional; details: HOP-62, 48 h
[1] = Cytotoxicity against african green monkey Vero cells after 48 hrs by neutral red assay; assay type: cell-based; details: chlorocebus sabaeus, read-out: TC50
UACC-62 = assay: Growth inhibition of human UACC62 cells after 48 hrs by sulforhodamine B assay; assay type: functional; details: UACC-62, 48 h
CAKI-1 = assay: Growth inhibition of human Caki1 cells after 48 hrs by sulforhodamine B assay; assay type: functional; details: CAKI-1, 48 h
Malme-3M = assay: Growth inhibition of human MALME-3M cells after 48 hrs by sulforhodamine B assay; assay type: functional
[2] = Selectivity index, ratio of TC50 for african green monkey (Cercopithecus aethiops) Vero cells to IC50 for chloroquine-resistant Plasmodium falciparum W2; assay type: toxicity, cell-based
A498 = assay: Growth inhibition of human A498 cells after 48 hrs by sulforhodamine B assay; assay type: functional; details: A498, 48 h
HOP-92 = assay: Growth inhibition of human HOP92 cells after 48 hrs by sulforhodamine B assay; assay type: functional; details: HOP-92, 48 h
A549 = assay: Growth inhibition of human A549 cells after 48 hrs by sulforhodamine B assay; assay type: functional; details: A549, 48 h
HCT-116 = assay: Growth inhibition of human HCT116 cells after 48 hrs by sulforhodamine B assay; assay type: functional; details: HCT-116, 48 h
[3] = Growth inhibition of human […] cells after 48 hrs by sulforhodamine B assay; assay type: functional
OVCAR-8 = assay: Growth inhibition of human OVCAR8 cells after 48 hrs by sulforhodamine B assay; assay type: functional; details: OVCAR-8, 48 h
NCI/ADR-RES = assay: Growth inhibition of human NCI/ADR-RES cells after 48 hrs by sulforhodamine B assay; assay type: functional
MOLT-4 = assay: Growth inhibition of human MOLT4 cells after 48 hrs by sulforhodamine B assay; assay type: functional; details: MOLT-4, 48 h
BT-549 = assay: Growth inhibition of human BT549 cells after 48 hrs by sulforhodamine B assay; assay type: functional; details: BT-549, 48 h
HCC 2998 = assay: Growth inhibition of human HCC2998 cells after 48 hrs by sulforhodamine B assay; assay type: functional; details: HCC 2998, 48 h
MCF7 = assay: Growth inhibition of human MCF7 cells after 48 hrs by sulforhodamine B assay; assay type: functional; details: MCF7, 48 h
RXF 393 = assay: Growth inhibition of human RXF393 cells after 48 hrs by sulforhodamine B assay; assay type: functional; details: RXF 393, 48 h
OVCAR-3 = assay: Growth inhibition of human OVCAR-3 cells after 48 hrs by sulforhodamine B assay; assay type: functional; details: OVCAR-3, 48 h
Plasmodium falciparum = assay: Antimalarial activity after 72 hrs against chloroquine-sensitive Plasmodium falciparum D6 infected in erythrocytes by LDH assay; assay type: functional, organism-based; details: D6, 72 h
HL-60 = assay: Growth inhibition of human HL-60(TB) cells after 48 hrs by sulforhodamine B assay; assay type: functional; details: HL-60, 48 h
EKVX = assay: Growth inhibition of human EKVX cells after 48 hrs by sulforhodamine B assay; assay type: functional
TK-10 = assay: Growth inhibition of human TK10 cells after 48 hrs by sulforhodamine B assay; assay type: functional; details: TK-10, 48 h
SF-268 = assay: Growth inhibition of human SF268 cells after 48 hrs by sulforhodamine B assay; assay type: functional; details: SF-268, 48 h
MDA-N = assay: Growth inhibition of human MDA-N cells after 48 hrs by sulforhodamine B assay; assay type: functional
KM12 = assay: Growth inhibition of human KM12 cells after 48 hrs by sulforhodamine B assay; assay type: functional; details: KM12, 48 h
[4] = Growth inhibition of human Hs 578T cells after 48 hrs by sulforhodamine B assay; assay type: functional
HCT-15 = assay: Growth inhibition of human HCT15 cells after 48 hrs by sulforhodamine B assay; assay type: functional; details: HCT-15, 48 h
ACHN = assay: Growth inhibition of human ACHN cells after 48 hrs by sulforhodamine B assay; assay type: functional
SW-620 = assay: Growth inhibition of human SW620 cells after 48 hrs by sulforhodamine B assay; assay type: functional; details: SW-620, 48 h
[5] = Selectivity index, ratio of TC50 for african green monkey (Cercopithecus aethiops) Vero cells to IC50 for chloroquine-sensitive Plasmodium falciparum D6; assay type: toxicity, cell-based
HT-29 = assay: Growth inhibition of human HT-29 cells after 48 hrs by sulforhodamine B assay; assay type: functional; details: HT-29, 48 h
LOX IMVI = assay: Growth inhibition of human LOXIMVI cells after 48 hrs by sulforhodamine B assay; assay type: functional
786-0 = assay: Growth inhibition of human 786-0 cells after 48 hrs by sulforhodamine B assay; assay type: functional; details: 786-0, 48 h
SF-295 = assay: Growth inhibition of human SF295 cells after 48 hrs by sulforhodamine B assay; assay type: functional; details: SF-295, 48 h

COCC(CO[C@H]1O[C@@H]2O[C@@]3(C)CC[C@H]4[C@H](C)CC[C@@H]([C@H]1C)[C@@]24OO3)O[C@H]1O[C@@H]2O[C@@]3(C)CC[C@H]4[C@H](C)CC[C@@H]([C@H]1C)[C@@]24OO3 (stereo not given in full)
GI50 (OVCAR-5): 104 nM
GI50 (MDA-MB-231): 13100 nM
GI50 (SK-MEL-5): 496 nM
GI50 (IGROV-1): 4200 nM
GI50 (M14): 49 nM
GI50 (NCI-H522): 58 nM
GI50 (UACC-257): 159 nM
GI50 (CCRF-CEM): 19 nM
GI50 (MDA-MB-435): 443 nM
GI50 (SR): 15 nM
GI50 (NCI-H226): 87 nM
GI50 (U-251): 21 nM
GI50 (PC-3): 19 nM
GI50 (NCI-H460): 81 nM
GI50 (SK-MEL-28): 5750 nM
GI50 (HOP-62): 5620 nM
CC50 at 48 h [1]: > 745000 nM
GI50 (UACC-62): 135 nM
GI50 (CAKI-1): 192 nM
GI50 (Malme-3M): 8130 nM
selectivity ratio [2]: > 159
GI50 (A498): 148 nM
GI50 (HOP-92): 71 nM
GI50 (A549): 61 nM
GI50 (HCT-116): 12 nM
GI50 [3]: 4 nM
GI50 (OVCAR-8): 130 nM
GI50 (NCI/ADR-RES): 533 nM
GI50 (MOLT-4): 27 nM
GI50 (BT-549): 7520 nM
GI50 (HCC 2998): 108 nM
GI50 (MCF7): 150 nM
GI50 (RXF 393): 2970 nM
GI50 (OVCAR-3): 65 nM
pIC50 (Plasmodium falciparum): 4.76
GI50 (HL-60): 28 nM
GI50 (EKVX): 689 nM
GI50 (TK-10): 58 nM
GI50 (SF-268): 6290 nM
GI50 (MDA-N): 518 nM
GI50 (KM12): 18 nM
GI50 [4]: 74 nM
GI50 (HCT-15): 17 nM
GI50 (ACHN): 189 nM
GI50 (SW-620): 15 nM
selectivity ratio [5]: > 43
GI50 (HT-29): 19 nM
GI50 (LOX IMVI): 23 nM
GI50 (786-0): 185 nM
GI50 (SF-295): 4630 nM
